Data set [1] deals with dopaminergic neurons in the SNc. The data set is described as follows: 6-OHDA lesion, TH staining of striatum and SNc. Format: in vivo, mouse. As to conditions: bilateral injection into the striatum, 800 nL of 5 mg/mL per side, 1 week. Here is the method:
A PD mouse model was generated using 6-OHDA. Desipramine (Sigma) was administrated (25 mg/kg) via intraperitoneal injection 30 min before a 6-OHDA injection. The stereotactic injection procedure was identical to the AAV injection described above. A volume of 800 nL 6-OHDA (5 mg/mL) was injected into each side of striatum (from bregma: AP 0.5 mm, ML ±1.5 mm, DV –3.2 mm) at a rate of 100 nL/min. One week after 6-OHDA lesions were generated, AAV injections were administered, and behavioral tests were conducted 3 weeks after AAV injections.
Animals were deeply anesthetized and perfused with saline and 4% paraformaldehyde perfusion through left ventricle. The mouse brains were extracted, fixed overnight, and then dehydrated with 30% sucrose solution. After being embedded in OCT (Sakura), brain sections were prepared at 40 μm thickness by a cryostat (Leica, CM1950).
Brain slices were blocked and permeabilized with PBS containing 5% bovine serum albumin (BSA) and 0.3% Triton X-100 for 30 min. The slices were then incubated with anti-GFP (Abcam, ab13970) or anti-TH (Abcam, ab76442), diluted to 1:500 in PBS containing 5% BSA at 4°C overnight. The sections were then incubated with diluted Alexa Fluor 488 goat anti-chicken IgG antibody (Thermo Fisher, A-11039) or Alexa Fluor 594 donkey anti-mouse IgG antibody (Thermo Fisher, A32744) at room temperature for 1 h. […]

The target of another data set is T1, rM3Ds (Rattus norvegicus, UniProt P08483, A177S/A238G/A489L/DEL261-437/DEL441-478/E258S/I253V/I483M/INS256[…]/K178L/K182A/K255R/K484R/K486H/L173F/L482A/M480V/R171S/R176Q/R179M/S481M/T174R/T181R/T257A/Y148C).
T1 construct: host or cells: HEK293T
T1 sequence (P08483 with tags, fused parts or gaps Y148C/R171S/L173F/T174R/R176Q/A177S/K178L/R179M/T181R/K182A/A238G/I253V/K255R/INS256[…]/T257A/E258S/DEL261-437/DEL441-478/M480V/S481M/L482A/I483M/K484R/K486H/A489L): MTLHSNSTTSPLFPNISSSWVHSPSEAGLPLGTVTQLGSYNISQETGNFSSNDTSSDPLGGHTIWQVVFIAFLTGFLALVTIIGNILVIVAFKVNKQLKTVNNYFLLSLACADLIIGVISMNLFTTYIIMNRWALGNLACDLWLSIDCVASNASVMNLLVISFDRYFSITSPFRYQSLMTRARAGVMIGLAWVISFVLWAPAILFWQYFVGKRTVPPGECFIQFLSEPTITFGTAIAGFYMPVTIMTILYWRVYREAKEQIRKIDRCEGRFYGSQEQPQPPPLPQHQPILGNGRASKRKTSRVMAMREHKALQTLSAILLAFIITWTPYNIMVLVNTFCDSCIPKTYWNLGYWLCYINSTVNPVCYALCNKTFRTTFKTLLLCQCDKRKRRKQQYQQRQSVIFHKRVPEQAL
The data set can be described thus: cAMP assay (CRE-luciferase reporter) in HEK293T cells expressing rM3Ds. Format: cell-based. Conditions: 100 μM of ACh, rM3Ds-transfected cells.

`NCCc1cc(O)c(O)cc1O` [6-OHDA, 6-hydroxydopamine]: the “dopaminergic neurons in the SNc and dopaminergic innervation in the striatum” value in data set [1] was “almost complete loss”.

As to `CC(=O)OCC[N+](C)(C)C` [ACh, acetylcholine chloride], the luciferase activity entry on rM3Ds is on record as “modest elevation in luciferase activity”.
